Experimental findings from patent publication US5084455A, “Novel indole carboxamides” (Roussel Uclaf, priority 1985, dated 1992) are described below.

What is called IC50 is the concentration that gives 50% inhibition.

The subject of one series is mice. Kind of series: Study of the acute toxicity. In kind it is in vivo. The note with it: oral. The procedure:
The lethal doses LD50 of the different compounds tested were evaluated after administration orally to mice. The maximum dose not causing any mortality in 8 days was called the LD0 and the following results were obtained.

In series [1] the test system is disturbances of the cardiac rhythm. Put plainly: Anti-arrhythmic action in the rat (aconitine perfusion). In kind it is in vivo, male rats. The procedure:
Male rats weighing 300-350 g were anesthetized intra-peritoneally with 1.20 g/kg of urethane, then tracheotomized and submitted to artificial respiration (40-50 breaths of 3 ml/minute). Needles were implanted subcutaneously so as to record the electro-cardiogram of the rats on the DII derivation signal. The products under test were administered intravenously or orally.
Five minutes after the administration of the product intravenously or 1 hour after administration orally, the jugular vein of the rats was perfused with 10 μg/minute from 0.2 ml of a solution of aconitine, and the time of appearance of disturbances of the cardiac rhythm was noted, (10 μg of aconitine corresponding to a perfusion of 0.2 ml of solution). The results are expressed as a percentage of the extension of the time of appearance of the disturbances of the cardiac rhythm as compared with controls, and as a function of the dose of the product under test.

A further series relates to Rat caudal arteries. Kind of series: Test of calcium-antagonistic activity in vitro (K+ depolarized caudal arteries). In kind it is cell-based. Conditions: 100 mM K+, 37° C., read-out: IC50, inhibition of the contraction due to K+ ions. As to the method:
Calcium chloride was added in a volume of 250 μl to obtain a series of increasing concentrations of Ca^2+ ions ranging from 0.1 to 3.0 mM. The contractions of the arteries were recorded and a control series were thus established. The operation was repeated with the series of CA^2+ ions every 15 minutes and the preparation was washed four times after each series. When a stable response was obtained, the operation with the series of CA^2+ ions was performed in the presence of different concentrations of the test product, until a stable response was obtained.
The contractions of the arteries depend on the entry of Ca^2+ ions into the cells of the smooth muscles, and were caused by the depolarization of the smooth muscle by the K^+ ions and by the action of the noradrenaline released at presynaptic level. By starting the operation again with arteries denervated by the action of 6-OH-dopamine, the specific action due to noradrenaline was eliminated.

Where [2] appears, read: iv, read-out: Percentage extension of the time of appearance of disturbances of the cardiac rhythm.
The mark [3] stands for this setting: po, read-out: Percentage extension of the time of appearance of disturbances of the cardiac rhythm.
[4] abbreviates: read-out: Percentage of prolongation in the time.
[5] abbreviates: iv, read-out: Percentage of prolongation in the time.

Structures can show the parent of a compound that is named as a salt. Where two headings read alike, the source gives them in different places.

`CC(C)(C)NCC(O)COc1ccccc1NC(=O)c1cccc2[nH]ccc12` (stereo not drawn) [Example 1, N-[2-[3-[(1,1-dimethylethyl)amino]-2-hydroxypropoxy]-phenyl]-1H-indol-4-carboxyamide]: in the series with mice, the “LD0 (maximum dose not causing any mortality in 8 days)” value is on record as 80 mg/kg. Moreover, in series [1] (setting [2]), the change in vivo at 0.25 mg/kg turned out to be 31%, the change in vivo at 0.5 mg/kg was determined as 41% and the change in vivo at 1 mg/kg amounted to 110%.

Take `CC(C)(C)NCCOc1ccccc1NC(=O)c1cccc2[nH]ccc12` [Example 2, N-[2-[2-[(1,1-dimethylethyl)amino]ethoxy]phenyl]-1H-indol-4-carboxamide]: the “LD0 (maximum dose not causing any mortality in 8 days)” value with mice was determined as 80 mg/kg. Further, in series [1] (setting [2]), the change in vivo at 1 mg/kg stood at 6% and the change in vivo at 2.5 mg/kg was determined as 57%.

For `CC(C)(C)NCCCOc1ccccc1NC(=O)c1cccc2[nH]ccc12` [Example 3, N-[2-[3-[(1,1-dimethylethyl)amino]propoxy]phenyl]-1H-indol-4-carboxamide hydrochloride], the change in vivo at 2.5 mg/kg in series [1] (setting [2]) is 68%.

In the case of `CC(C)(C)NCC(O)COc1ccccc1C(=O)Nc1cccc2[nH]ccc12` (stereo not drawn) [Example 4, 2-[3-[(1,1-dimethylethyl)amino]-2-hydroxypropoxy]-N-(1H-indol-4-yl)benzamide], in the series on mice, the “LD0 (maximum dose not causing any mortality in 8 days)” value was over 400 mg/kg. In series [1] (setting [2]), the change in vivo at 0.5 mg/kg worked out at 17%, the change in vivo at 1 mg/kg worked out at 38% and the change in vivo at 2.5 mg/kg is 124%. For the same compound, in series [1] (setting [3]), the change in vivo at 5 mg/kg was 7%, the change in vivo at 10 mg/kg worked out at 46% and the change in vivo at 25 mg/kg is 81%.

For `CC(C)(C)NCCOc1ccccc1C(=O)Nc1cccc2[nH]ccc12.Cl` [Example 5, 2-[2-[(1,1-dimethylethyl)amino]ethoxy]-N-(1H-indol-4-yl)-benzamide hydrochloride], the “LD0 (maximum dose not causing any mortality in 8 days)” value with mice was 60 mg/kg. For the same compound, in series [1] (setting [2]), the change in vivo at 0.25 mg/kg came out at 9%, the change in vivo at 0.5 mg/kg was 36%, the change in vivo at 1 mg/kg came out at 33% and the change in vivo at 2.5 mg/kg stood at 61%. Also, in series [1] (setting [3]), the change in vivo at 2.5 mg/kg came out at 22%, the change in vivo at 5 mg/kg came to 32% and the change in vivo at 10 mg/kg turned out to be 59%.

With `CC(C)(C)NCCCOc1ccccc1C(=O)Nc1cccc2[nH]ccc12` [Example 6, 2-[3-[(1,1-dimethylethyl)amino]propoxy]-N-(1H-indol-4-yl)benzamide], the “LD0 (maximum dose not causing any mortality in 8 days)” value in the series with mice is reported as 200 mg/kg. For the same compound, in series [1] (setting [2]), the change in vivo at 1 mg/kg was 23% and the change in vivo at 2.5 mg/kg turned out to be 41%. Further, the change in vivo at 2.5 mg/kg in series [1] (setting [3]) was 29%.

Take `CC(C)N(CCOc1ccccc1C(=O)Nc1cccc2[nH]ccc12)C(C)C` [Example 12, 2-[2-[bis(1-methylethyl)-amino]ethoxy-]N-(1H-indol-4-yl) benzamide]: the “LD0 (maximum dose not causing any mortality in 8 days)” value in the series with mice was over 400 mg/kg.

Regarding `CC(C)N(CC(O)COc1ccccc1C(=O)Nc1cccc2[nH]ccc12)C(C)C` (stereo not drawn) [Example 15], the “LD0 (maximum dose not causing any mortality in 8 days)” value in the series with mice is listed as at least 400 mg/kg. Moreover, in series [1] (setting [2]), the change in vivo at 2.5 mg/kg was found to be 25.5% and the change in vivo at 5 mg/kg is 56%.

Turning to `CCC(C)(C)NCCCOc1ccccc1C(=O)Nc1cccc2[nH]ccc12` [Example 30, 2-[3-[(1,1-dimethylpropyl)amino]-propoxy]-N-(1H-indol-4-yl)benzamide], the IC50 with Rat caudal arteries is 8 µM. Further, the “LD0 (maximum dose not causing any mortality in 8 days)” value in the series on mice is listed as 80 mg/kg. Moreover, in series [1] (setting [2]), the change in vivo at 2.5 mg/kg was found to be 38%, the change in vivo at 5 mg/kg was 99% and the change in vivo at 10 mg/kg worked out at 147%.

On to `O=C(Nc1cccc2[nH]ccc12)c1ccccc1OCCCNC1CCCCC1` [Example 31, 2-[3-(Cyclohexylamino)propoxy]-N-(1-H-indol-4-yl)benzamide], for which, in the series with Rat caudal arteries, the IC50 amounted to 1.8 µM. Further, in series [1] (setting [2]), the change in vivo at 1 mg/kg worked out at 24%, the change in vivo at 2.5 mg/kg is 34% and the change in vivo at 5 mg/kg was 83%.

Consider `C#CC(C)(C)NCC(O)COc1ccccc1C(=O)Nc1cccc2[nH]ccc12` (stereo not drawn) [Example 35, 2-[3-[1,1-Dimethyl-2-propynylamino]-2-hydroxypropoxy]-N-(1H-indol-4-yl) benzamide], for which the IC50 in the series on Rat caudal arteries was 9 µM.

In the case of `CC(C)(C)CC(C)(C)NCC(O)COc1ccccc1C(=O)Nc1cccc2[nH]ccc12` (stereo not drawn) [Example 36, 2-[2-Hydroxy-3-[1,1,3,3-tetramethylbutyl-amino]propoxy]-N-(1H-indol-4-yl)benzamide], in the series with Rat caudal arteries, the IC50 was determined as 0.44 µM. In series [1] (setting [4]), the change in vivo at 1 mg/kg was determined as 25% and the change in vivo at 2.5 mg/kg was 69%.

With `CC(C)(CO)NCC(O)COc1ccccc1C(=O)Nc1cccc2[nH]ccc12` (stereo not drawn) [Example 37, 2-[3-[1,1-Dimethyl-2-hydroxyethylamino]-2-hydroxypropoxy]-N-(1H-indol-4-yl)benzamide], in series [1] (setting [4]), the change in vivo at 1 mg/kg came to 47% and the change in vivo at 5 mg/kg worked out at 116%.

As to `CCCNCCCOc1ccccc1C(=O)Nc1cccc2[nH]ccc12` [Example 38, N-(1H-Indol-4-yl)-2-[3-(propylamino)propoxy]-benzamide], in series [1] (setting [4]), the change in vivo at 2.5 mg/kg is 42%, the change in vivo at 5 mg/kg is 76% and the change in vivo at 10 mg/kg was found to be 173%.

Take `CC(C)(CO)NCCCOc1ccccc1C(=O)Nc1cccc2[nH]ccc12` [Example 40, 2-[3-[1,1-dimethyl-2-hydroxyethylamino]-propoxy]-N-(1H-indol-4-yl)benzamide]: the IC50 with Rat caudal arteries worked out at 8.4 µM. Also, in series [1] (setting [4]), the change in vivo at 1 mg/kg came to 21% and the change in vivo at 2.5 mg/kg was found to be 50%.

With `CC(C)NCCCOc1ccccc1NC(=O)c1cccc2[nH]ccc12` [Example 41, N-[2-[3-[Isopropylamino]propoxy]phenyl]-1H-indole-4-carboxamide], in series [1] (setting [4]), the change in vivo at 1 mg/kg is 34%, the change in vivo at 2.5 mg/kg was determined as 57% and the change in vivo at 5 mg/kg stood at 156%.

In the case of `O=C(Nc1ccccc1OCCCNC1CCCC1)c1cccc2[nH]ccc12` [Example 42, N-[2-[3-(Cyclopentylamino)propoxy]phenyl]-1H-indol-4-carboxamide], in series [1] (setting [4]), the change in vivo at 1 mg/kg worked out at 29% and the change in vivo at 2.5 mg/kg is 86%.

Regarding `O=C(Nc1ccccc1OCCCNC1CCCCC1)c1cccc2[nH]ccc12` [Example 43, N-[2-[3-(Cyclohexylamino)propoxy]phenyl]-1H-indole-4-carboxamide], in series [1] (setting [4]), the change in vivo at 1 mg/kg was 49% and the change in vivo at 2.5 mg/kg stood at 83%.

With `CCC(C)(C)NCCCOc1ccccc1NC(=O)c1cccc2[nH]ccc12` [Example 44, N-[2-[3-[1,1-Dimethylpropylamino]propoxy]phenyl]-1H-indole-4-carboxamide], in the series with mice, the “LD0 (maximum dose not causing any mortality in 8 days)” value is listed as 200 mg/kg. Moreover, in series [1] (setting [4]), the change in vivo at 1 mg/kg amounted to 50%, the change in vivo at 2.5 mg/kg was determined as 90% and the change in vivo at 5 mg/kg was determined as 167%.

`COc1ccc(CCNCCCOc2ccccc2NC(=O)c2cccc3[nH]ccc23)cc1OC` [Example 45, N-[2-[3-[[2-(3,4-dimethoxyphenyl)ethyl]-amino]propoxy]phenyl]-1H-indole-4-carboxamide]: in series [1] (setting [4]), the change in vivo at 2.5 mg/kg came to 60%, the change in vivo at 5 mg/kg was found to be 142% and the change in vivo at 10 mg/kg amounted to 193%.

In the case of `COc1cc(CCN2CCN(CCCCOc3ccccc3C(=O)Nc3cccc4[nH]ccc34)CC2)cc(OC)c1OC` [Example 47, N-(1H-Indol-4-yl)-2-[4-[4-[2-(3,4,5-trimethoxyphenyl)ethyl]-1-piperazinyl]butoxy]benzamide], the IC50 in the series with Rat caudal arteries came out at 2.8 µM. Besides, in series [1] (setting [4]), the change in vivo at 5 mg/kg was determined as 44% and the change in vivo at 10 mg/kg was determined as 67%.

For `Cn1ccc2c(NC(=O)c3ccccc3OCC(O)CN3CCN(C(c4ccccc4)c4ccccc4)CC3)cccc21` (stereo not drawn) [Example 49], the IC50 in the series on Rat caudal arteries was 3 µM.

For the compound `CC(C)(C)NCC(O)COc1ccc([N+](=O)[O-])cc1C(=O)Nc1cccc2[nH]ccc12` (stereo not drawn) [Example 50], in the series with mice, the “LD0 (maximum dose not causing any mortality in 8 days)” value worked out at 200 mg/kg. Further, in series [1] (setting [5]), the change in vivo at 0.5 mg/kg amounted to 17%, the change in vivo at 1 mg/kg is 39% and the change in vivo at 2.5 mg/kg was 77%.

Regarding `COc1ccc(C(=O)Nc2cccc3[nH]ccc23)c(OCC(O)CNC(C)(C)C)c1` (stereo not drawn) [Example 53, 2-[3-(1,1-dimethylethyl)-amine]-2-hydroxy-propoxy-N-(1H-indol-4-yl)-4-methoxy-benzamide], the IC50 with Rat caudal arteries is 8 µM. Also, in series [1] (setting [5]), the change in vivo at 1 mg/kg stood at 10% and the change in vivo at 2.5 mg/kg was found to be 38%.

Take `CC(C)(C)NCC(O)COc1ccc(Cl)cc1C(=O)Nc1cccc2[nH]ccc12` (stereo not drawn) [Example 54, 5-Chloro-2-[3-(1,1-dimethylethyl)-amino]-2-hydroxy-propoxy-N-(1H-indol-4-yl)-benzamide]: in the series on Rat caudal arteries, the IC50 was determined as 5.4 µM.
